How the values were obtained:
in vivo [1] = details: mouse
[2] = test system: carrageenin-induced oedema; assay: carrageenin-induced oedema test (anti-inflammatory activity); assay type: in vivo, albino male Wistar rats
[3] = test system: mucus secreted by the respiratory airway; assay: antisecretory activity, respiratory mucus secretion; assay type: in vivo, albino male New Zealand rabbits; details: vs control group
Summary of the method: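 Male New Zealand rabbits, groups of four, urethane-anaesthetised (1.1 g/kg i.p.) with tracheal Y cannula breathing 100%-humidity air at 39° C. Mucus collected and measured 3 and 6 h post-dose; change expressed as percent difference from vehicle controls.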

[4] = test system: cough provoked by mechanical stimulation of the tracheal bifurcation mucosa; assay: antitussive activity, mechanically provoked coughing; assay type: in vivo, albino Guinea-pigs; details: 1 h after administration
Summary of the method: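 Albino guinea-pigs (300 g) with a tracheal Y cannula; coughing provoked by mechanically stimulating the tracheal bifurcation mucosa with a boar's hair.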

[5] = test system: phenyl-p-quinone-induced writhing (abdominal contractions); assay: phenylquinone-induced writhing test (analgesic activity), compound given 30 min before phenyl-p-quinone; assay type: in vivo, male Wistar rats
Summary of the method: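 Male Wistar rats (110±5 g), fasted 14 h, received test compounds orally or parenterally in 0.5% CMC/saline vehicle 30 min before 2 ml of 0.36% phenyl-p-quinone in 5% ethanol.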

in vivo [6] = details: rat

Q: Which LD50 (in vivo [1]; ip) does the source give for `Cc1ccc(C(=O)c2ccc(CC(=O)N3CCN(C)CC3)n2C)cc1` [Compound 3-b, 1-methyl-5-p-toluoylpyrrole-2-N-[(4-methyl)-1-piperazinyl] acetamide] here?
A: 770 mg/kg

Q: What about the LD50 (in vivo [1]; po) of the same compound?
A: 1200 mg/kg

Q: What about the oedema % inhibition ([2]; 25 mg/Kg per os, 2 h) of the same compound?
A: 28.1%

Q: And the oedema % inhibition ([2]; 25 mg/Kg per os, 4 h)?
A: 33.4%

Q: What about the oedema % inhibition ([2]; 25 mg/Kg per os, 6 h) of the same compound?
A: 30.0%

Q: What about the oedema % inhibition ([2]; 25 mg/Kg per os, 24 h) of the same compound?
A: 10.2%

Q: And the oedema % inhibition ([2]; 25 mg/Kg per os, 48 h)?
A: 0.0%

Q: What about the oedema % inhibition ([2]; 25 mg/Kg per os, 72 h) of the same compound?
A: 0.0%

Q: What about the oedema % inhibition ([2]; 25 mg/Kg, Table IV (route not given), 2 h) of the same compound?
A: 33.2%

Q: And the oedema % inhibition ([2]; 25 mg/Kg, Table IV (route not given), 4 h)?
A: 36.0%

Q: What about the oedema % inhibition ([2]; 25 mg/Kg, Table IV (route not given), 6 h) of the same compound?
A: 30.0%

Q: What about the oedema % inhibition ([2]; 25 mg/Kg, Table IV (route not given), 24 h) of the same compound?
A: 10.0%

Q: What about the oedema % inhibition ([2]; 25 mg/Kg, Table IV (route not given), 48 h) of the same compound?
A: 0.0%

Q: And the oedema % inhibition ([2]; 25 mg/Kg, Table IV (route not given), 72 h)?
A: 0.0%

Q: And the oedema % inhibition ([2]; 50 mg/Kg per os, 2 h)?
A: 49.1%

Q: What about the oedema % inhibition ([2]; 50 mg/Kg per os, 4 h) of the same compound?
A: 48.0%

Q: And the oedema % inhibition ([2]; 50 mg/Kg per os, 6 h)?
A: 49.7%

Q: What about the oedema % inhibition ([2]; 50 mg/Kg per os, 24 h) of the same compound?
A: 15.2%

Q: And the oedema % inhibition ([2]; 50 mg/Kg per os, 48 h)?
A: 0.0%

Q: What about the oedema % inhibition ([2]; 50 mg/Kg per os, 72 h) of the same compound?
A: 0.0%

Q: And the oedema % inhibition ([2]; 50 mg/Kg, Table IV (route not given), 2 h)?
A: 52.3%

Q: And the oedema % inhibition ([2]; 50 mg/Kg, Table IV (route not given), 4 h)?
A: 55.6%

Q: And the oedema % inhibition ([2]; 50 mg/Kg, Table IV (route not given), 6 h)?
A: 58.9%

Q: And the oedema % inhibition ([2]; 50 mg/Kg, Table IV (route not given), 24 h)?
A: 11.2%

Q: What about the oedema % inhibition ([2]; 50 mg/Kg, Table IV (route not given), 48 h) of the same compound?
A: 0.0%

Q: What about the oedema % inhibition ([2]; 50 mg/Kg, Table IV (route not given), 72 h) of the same compound?
A: 0.0%

Q: What about the oedema % inhibition ([2]; 100 mg/Kg per os, 2 h) of the same compound?
A: 69.7%

Q: What about the oedema % inhibition ([2]; 100 mg/Kg per os, 4 h) of the same compound?
A: 68.0%

Q: And the oedema % inhibition ([2]; 100 mg/Kg per os, 6 h)?
A: 69.0%

Q: And the oedema % inhibition ([2]; 100 mg/Kg per os, 24 h)?
A: 35.0%

Q: What about the oedema % inhibition ([2]; 100 mg/Kg per os, 48 h) of the same compound?
A: 8.9%

Q: And the oedema % inhibition ([2]; 100 mg/Kg per os, 72 h)?
A: 0.0%

Q: What about the oedema % inhibition ([2]; 100 mg/Kg, Table IV (route not given), 2 h) of the same compound?
A: 73.4%

Q: And the oedema % inhibition ([2]; 100 mg/Kg, Table IV (route not given), 4 h)?
A: 77.1%

Q: What about the oedema % inhibition ([2]; 100 mg/Kg, Table IV (route not given), 6 h) of the same compound?
A: 72.9%

Q: What about the oedema % inhibition ([2]; 100 mg/Kg, Table IV (route not given), 24 h) of the same compound?
A: 25.6%

Q: What about the oedema % inhibition ([2]; 100 mg/Kg, Table IV (route not given), 48 h) of the same compound?
A: 1.4%

Q: What about the oedema % inhibition ([2]; 100 mg/Kg, Table IV (route not given), 72 h) of the same compound?
A: 0.0%

Q: What about the “% difference in mucus secretion” value ([3]; 50 mg/Kg i.p., 3 h) of the same compound?
A: -12%

Q: What about the “% difference in mucus secretion” value ([3]; 50 mg/Kg i.p., 6 h) of the same compound?
A: -10%

Q: And the “% difference in mucus secretion” value ([3]; 50 mg/Kg per os, 3 h)?
A: -9%

Q: And the “% difference in mucus secretion” value ([3]; 50 mg/Kg per os, 6 h)?
A: -5%

Q: And the “% difference in mucus secretion” value ([3]; 75 mg/Kg i.p., 3 h)?
A: -25%

Q: What about the “% difference in mucus secretion” value ([3]; 75 mg/Kg i.p., 6 h) of the same compound?
A: -22%

Q: And the “% difference in mucus secretion” value ([3]; 75 mg/Kg per os, 3 h)?
A: -18%

Q: And the “% difference in mucus secretion” value ([3]; 75 mg/Kg per os, 6 h)?
A: -10%

Q: And the “% difference in mucus secretion” value ([3]; 100 mg/Kg i.p., 3 h)?
A: -40%

Q: And the “% difference in mucus secretion” value ([3]; 100 mg/Kg i.p., 6 h)?
A: -36%

Q: What about the “% difference in mucus secretion” value ([3]; 100 mg/Kg per os, 3 h) of the same compound?
A: -36%

Q: And the “% difference in mucus secretion” value ([3]; 100 mg/Kg per os, 6 h)?
A: -30%

Q: And the “% inhibition, cough amplitude” value ([4]; 50 mg/Kg i.p.)?
A: 20%

Q: And the “% inhibition, cough frequency” value ([4]; 50 mg/Kg i.p.)?
A: 28%

Q: What about the “% inhibition, cough amplitude” value ([4]; 50 mg/Kg per os) of the same compound?
A: 18%

Q: What about the “% inhibition, cough frequency” value ([4]; 50 mg/Kg per os) of the same compound?
A: 29%

Q: And the “% inhibition, cough amplitude” value ([4]; 75 mg/Kg i.p.)?
A: 30%

Q: What about the “% inhibition, cough frequency” value ([4]; 75 mg/Kg i.p.) of the same compound?
A: 20%

Q: What about the “% inhibition, cough amplitude” value ([4]; 75 mg/Kg per os) of the same compound?
A: 30%

Q: What about the “% inhibition, cough frequency” value ([4]; 75 mg/Kg per os) of the same compound?
A: 18%

Q: What about the “% inhibition, cough amplitude” value ([4]; 100 mg/Kg i.p.) of the same compound?
A: 52%

Q: What about the “% inhibition, cough frequency” value ([4]; 100 mg/Kg i.p.) of the same compound?
A: 40%

Q: What about the “% inhibition, cough amplitude” value ([4]; 100 mg/Kg per os) of the same compound?
A: 45%

Q: And the “% inhibition, cough frequency” value ([4]; 100 mg/Kg per os)?
A: 39%

Q: And the “% Protection” value ([5]; 5 mg/Kg i.p.)?
A: 28.0%

Q: And the “% Protection” value ([5]; 5 mg/Kg per os)?
A: 20.0%

Q: What about the “% Protection” value ([5]; 10 mg/Kg i.p.) of the same compound?
A: 50.0%

Q: And the “% Protection” value ([5]; 10 mg/Kg per os)?
A: 52.0%

Q: What about the “% Protection” value ([5]; 20 mg/Kg i.p.) of the same compound?
A: 80.3%

Q: What about the “% Protection” value ([5]; 20 mg/Kg per os) of the same compound?
A: 78.0%

Q: And the LD50 (in vivo [6]; ip)?
A: 590 mg/kg

Q: And the LD50 (in vivo [6]; po)?
A: 1000 mg/kg

Source: US4882349A, “Pyrrolacetic amides having antiinflammatory activity” (priority 1982, dated 1989)
